According to patent US20170240535A1, “HDAC1/2 INHIBITORS FOR THE TREATMENT OF NEURODEGENERATIVE AND/OR COGNITIVE DISORDERS” (Regenacy Pharmaceuticals, LLC, priority 2016, published 2017):

Legend:
[1] = target: T1, HDAC3 (Homo sapiens, UniProt O15379); assay: HDAC enzyme assay, HDAC3; assay type: biochemical; details: enzyme and compound incubated 24 hours at room temperature
T1 construct: purchased BPS Biosciences
Description: (§1) Compounds for testing were diluted in DMSO to 50 fold the final concentration and a ten point three fold dilution series was made. The compounds were diluted in assay buffer (50 mM HEPES, pH 7.4, 100 mM KCl, 0.001% Tween-20, 0.05% BSA, 20 μM TCEP) to 6 fold their final concentration. The HDAC enzymes (purchased from BPS Biosciences) were diluted to 1.5 fold their final concentration in assay buffer. The tripeptide substrate and trypsin at 0.05 μM final concentration were diluted in assay buffer at 6 fold their final concentration. The final enzyme concentrations used in these assays were 3.3 ng/ml (HDAC1), 0.2 ng/ml (HDAC2) and 0.08 ng/ml (HDAC3). The final substrate concentrations used were 16 μM (HDAC1), 10 μM (HDAC2) and 17 μM (HDAC3). Five μl of compound and 20 μl of enzyme were added to wells of a black, opaque 384 well plate in duplicate. Enzyme and compound were incubated together at room temperature for 24 hours. Five μl of substrate was added to each well, the plate was shaken for 60 seconds and placed into a Victor 2 microtiter plate reader. The development of fluorescence was monitored for 60 min and the linear rate of the reaction was calculated. The IC50 was determined using Graph Pad Prism by a four parameter curve fit.

[2] = target: T2, HDAC1 (Homo sapiens, UniProt Q13547); assay: HDAC enzyme assay, HDAC1; assay type: biochemical; details: enzyme and compound incubated 24 hours at room temperature
T2 construct: purchased BPS Biosciences
T2 sequence (Q13547 whole entry): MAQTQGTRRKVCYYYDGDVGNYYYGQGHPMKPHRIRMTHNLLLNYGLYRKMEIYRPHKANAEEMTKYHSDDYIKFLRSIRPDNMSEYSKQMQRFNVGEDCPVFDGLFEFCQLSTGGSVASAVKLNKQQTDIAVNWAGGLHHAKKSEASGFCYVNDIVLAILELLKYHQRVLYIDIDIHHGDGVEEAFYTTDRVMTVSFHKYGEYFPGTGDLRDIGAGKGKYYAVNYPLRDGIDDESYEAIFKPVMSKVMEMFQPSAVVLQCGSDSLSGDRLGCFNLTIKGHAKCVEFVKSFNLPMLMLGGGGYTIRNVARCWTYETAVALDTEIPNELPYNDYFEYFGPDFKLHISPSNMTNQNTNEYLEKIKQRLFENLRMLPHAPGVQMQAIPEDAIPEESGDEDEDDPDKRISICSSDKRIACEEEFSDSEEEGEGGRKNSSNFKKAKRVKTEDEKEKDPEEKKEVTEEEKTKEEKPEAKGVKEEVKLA
Description: as §1

[3] = target: T3, HDAC2 (Homo sapiens, UniProt Q92769); assay: HDAC enzyme assay, HDAC2; assay type: biochemical; details: enzyme and compound incubated 24 hours at room temperature
T3 construct: purchased BPS Biosciences
T3 sequence (Q92769 whole entry): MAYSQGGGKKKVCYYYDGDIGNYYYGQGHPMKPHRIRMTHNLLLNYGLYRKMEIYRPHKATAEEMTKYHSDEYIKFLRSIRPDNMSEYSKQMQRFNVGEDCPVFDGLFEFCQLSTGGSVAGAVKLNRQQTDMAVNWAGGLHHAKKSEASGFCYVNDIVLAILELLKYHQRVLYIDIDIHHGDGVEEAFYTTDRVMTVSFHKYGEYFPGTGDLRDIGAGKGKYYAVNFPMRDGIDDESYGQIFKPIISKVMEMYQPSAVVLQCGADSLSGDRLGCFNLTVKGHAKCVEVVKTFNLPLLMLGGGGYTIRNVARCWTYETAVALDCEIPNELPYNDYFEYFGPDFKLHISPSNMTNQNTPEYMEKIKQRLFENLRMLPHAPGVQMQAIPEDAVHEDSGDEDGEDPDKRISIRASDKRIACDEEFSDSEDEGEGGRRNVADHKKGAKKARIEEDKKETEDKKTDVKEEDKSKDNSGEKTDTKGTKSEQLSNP
Description: as §1

[4] = Pharmacokinetics in plasma and brain after IV administration; assay type: in vivo; details: IV 1 mg/kg, male C57BL/6 mice; for Kp / Cmax / Tmax / half-life / AUC(0-inf) / AUC(0-t) / MRT inf / clearance / Vd: mouse; for Kp: brain/plasma, read-out: AUCbrain/AUCplasma; for Vd: read-out: Vss
Description: Male C57Bl/6 mice were fasted overnight. Compounds of the invention were dissolved in dimethyl acetamide at 10 times the final concentration, then Solutol HS 15 (BASF) was added to a final concentration of 10%. Finally 80% saline was added and vortexed to achieve a clear solution. Fifteen animals were injected via the tail vein with 1 mg/kg compound. Blood was collected via retro orbital puncture into K2EDTA tubes at 5 minutes, 15 minutes, 30 minutes, 1 hour, 2 hours, 4 hours, 8 hours and 24 hours after dosing. The blood was centrifuged at 2000 g for 5 minutes at 4° C. to obtain plasma. The plasma was extracted with acetonitrile and the level of compound was analyzed by LC/MS/MS. The level of compound in plasma was calculated from a standard curve in mouse plasma. For brain levels, animals were sacrificed at 5 minutes, 15 minutes, 1 hour, 4 hours and 24 hours. Brains were removed and homogenized in acetonitrile and extracted. The level of compound in brain was calculated from a standard curve in mouse brain tissue. The IV clearance and area under the curve were calculated using WinNonLin software. The ratio of area under the curve for plasma and brain samples was calculated to produce the brain/plasma ratio.

[5] = Comparison of brain penetrance between quinolines and isoquinolines (IP dosing); assay type: in vivo; details: IP 5 mg/kg, C57Bl/6 mice; for Kp / AUC: mouse; for Kp: brain/plasma, read-out: ratio (AUC brain / AUC plasma); for AUC: plasma
Description: Comparator B (see Table 7) and Compound 2 were dosed in C57Bl/6 mice at 5 mg/kg in 10% DMAC/10% Solutol HS15/80% saline. Comparator A (see Table 7) was dosed at 5 mg/kg in 5% dextrose/water. All compounds were dosed IP. Mice were sacrificed at 5, 15, 30 minutes and 1, 2, 4, 8 and 24 hours after dosing. Plasma concentration of compound was determined at all time points by LC/MS/MS. Brain concentration was determined at 1, 4, 8 and 24 hours after dosing. The AUC was calculated using WinNonLin software. The results are shown in Table 7, where plasma AUC is expressed as hr*ng/mL and brain AUC is expressed as hr*ng/g.

T1 sequence (O15379 whole entry): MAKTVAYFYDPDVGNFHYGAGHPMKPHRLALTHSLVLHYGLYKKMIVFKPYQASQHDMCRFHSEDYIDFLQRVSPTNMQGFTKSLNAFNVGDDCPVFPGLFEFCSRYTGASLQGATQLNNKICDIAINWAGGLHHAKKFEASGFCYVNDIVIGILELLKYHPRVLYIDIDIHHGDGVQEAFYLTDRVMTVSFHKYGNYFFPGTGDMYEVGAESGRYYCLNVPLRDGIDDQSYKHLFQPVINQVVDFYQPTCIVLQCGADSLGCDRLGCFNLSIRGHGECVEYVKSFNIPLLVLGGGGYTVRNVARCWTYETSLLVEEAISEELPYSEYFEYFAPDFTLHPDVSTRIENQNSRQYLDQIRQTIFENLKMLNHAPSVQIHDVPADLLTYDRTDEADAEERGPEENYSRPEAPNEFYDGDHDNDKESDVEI
T1 sequence (Q9Y618 395-489 partner limits assumed): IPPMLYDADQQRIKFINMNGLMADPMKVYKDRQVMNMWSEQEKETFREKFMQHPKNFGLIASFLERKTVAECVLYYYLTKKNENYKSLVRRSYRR

SMILES	IC50 [1] [nM]	IC50 [2] [nM]	IC50 [3] [nM]	AUCINF ([4]; brain) [ng·h/g]	AUClast ([4]; brain) [ng·h/g]	Kp [4]	Cmax ([4]; brain) [ng/g]	Tmax ([4]; brain) [h]	half-life ([4]; brain) [h]	AUC(0-inf) ([4]; plasma, PK cassette) [ng·h/mL]	AUC(0-t) ([4]; plasma, PK cassette) [ng·h/mL]	MRT inf ([4]; plasma, PK cassette) [h]	clearance ([4]; plasma, PK cassette) [mL/min/kg]	half-life ([4]; plasma, PK cassette) [h]	Vd ([4]; plasma, PK cassette) [L/kg]	AUC brain [5] [ng·h/g]	Kp [5]	AUC [5] [ng·h/mL]	brain penetrance (from brain/plasma AUC ratios) [4]
CN1CCCC1C(=O)Nc1ccc2cc(C(=O)Nc3cc(-c4cccs4)ccc3N)ncc2c1 (centres unmarked) [Compound 7]	66	3	10	–	–	–	–	–	–	–	–	–	–	–	–	–	–	–	–
CN(C)CCNc1ccc2cc(C(=O)Nc3cc(-c4cccs4)ccc3N)ncc2c1 [Compound 5]	19	2	6	–	–	–	–	–	–	–	–	–	–	–	–	–	–	–	–
Nc1ccc(-c2cccs2)cc1NC(=O)c1cc2ccc(NC(=O)C3CCCN3)cc2cn1 (centres unmarked) [Compound 6]	121	5	19	–	–	–	–	–	–	–	–	–	–	–	–	–	–	–	–
Nc1ccc(-c2cccs2)cc1NC(=O)c1cc2ccc(N3CCNCC3)cc2cn1 [Compound 2]	43	3	10	13461	11474	8.33	783	1	9.3	1620	1560	6.97	10.3	5.29	4.31	23283	7.2	3230	highly brain penetrant
Nc1ccc(-c2ccccc2)cc1NC(=O)c1cc2ccc(N3CCNCC3=O)cc2cn1 [Compound 4]	182	6	8	390	319	0.1	145	0.25	1.66	3820	3470	8.72	4.37	7.71	2.28	–	–	–	–

Now from value to compound:

IC50 [1] [nM]	IC50 [2] [nM]	IC50 [3] [nM]	AUCINF ([4]; brain) [ng·h/g]	AUClast ([4]; brain) [ng·h/g]	Kp [4]	Cmax ([4]; brain) [ng/g]	Tmax ([4]; brain) [h]	half-life ([4]; brain) [h]	AUC(0-inf) ([4]; plasma, PK cassette) [ng·h/mL]	AUC(0-t) ([4]; plasma, PK cassette) [ng·h/mL]	MRT inf ([4]; plasma, PK cassette) [h]	clearance ([4]; plasma, PK cassette) [mL/min/kg]	half-life ([4]; plasma, PK cassette) [h]	Vd ([4]; plasma, PK cassette) [L/kg]	AUC brain [5] [ng·h/g]	Kp [5]	AUC [5] [ng·h/mL]	brain penetrance (from brain/plasma AUC ratios) [4]	SMILES
74	7	8	1439	1237	1.8	126	0.25	8.63	799	770	5.45	20.8	5.68	6.82	–	–	–	–	Nc1ccc(-c2ccncc2)cc1NC(=O)c1cc2ccc(N3CCNCC3)cc2cn1 [Compound 3]
–	–	–	–	–	–	–	–	–	–	–	–	–	–	–	2092	0.16	12900	–	Nc1ccc(-c2cccs2)cc1NC(=O)c1ccc2nc(N3CCNCC3)ccc2c1 [Comparator A]
–	–	–	9607	9444	10.3	1000	1	4.4	–	–	–	–	–	–	–	–	–	highly brain penetrant	Nc1ccc(-c2ccc(F)cc2)cc1NC(=O)c1cc2ccc(N3CCNCC3)cc2cn1 [Compound 9]
–	–	–	–	–	–	–	–	–	–	–	–	–	–	–	655	0.06	10800	–	Nc1ccc(-c2cccs2)cc1NC(=O)c1cnc2cc(N3CCNCC3)ccc2c1 [Comparator B]
